From patent publication US20230151010A1, “CRYSTALLINE FORMS OF (9R, 135S)-13- {4-[5-CHLORO-2-(4-CHLORO-1H,2,3- TRIAZOL- 1 -YL)PHENYL] -6-OXO- 1,6-DIHYDROPYRIMIDIN- 1-YL}-3-(DIFLUOROMETHYL)-9-METHYL-3,4,7,15- TETRAAZATRICYCLO [ 12.3.1.0 2·6] OCTADECA- 1(18), 2(6), 4, 14, 16-PENTAEN-8-ONE” (Bristol-Myers Squibb Company, priority 2020, published 2023)
Values belong to the compound of their own block, whether it stands above or below them.

Key:
Assay type in all cases: physicochemical
[1] = VT-PXRD analysis of form change
[2] = Hygroscopicity of forms from the polymorph preparations (method not given)
[3] = Dynamic vapor sorption (DVS)
Protocol: About 20 mg of the crystalline form was transferred into a dynamic vapor sorption instrument from Surface Measurement Systems Ltd. (SMS). The weight change was recorded relative to the relative humidity (Target RH %) at 25° C.
Crystalline Forms A and J were analyzed by dynamic vapor sorption (DVS) according to the conditions described in the General Procedures.

[4] = Thermogravimetric analysis (TGA); conditions: heating 10° C./min, nitrogen
Protocol: TA INSTRUMENT® models Q5000, Q500, or 2950 were used to generate TGA data. The measurement was made using standard TA Instruments Platinum pans. The measurement was made at a heating rate of 10° C./min, in a nitrogen environment from room temperature to 300° C., with a sample size about 10-30 mg.
Crystalline Forms A and J were analyzed by thermogravimetric analysis (TGA) according to the conditions described in the General Procedures. Exemplary TGA thermograms for Forms A and J are shown in FIGS. 4 and 13D, respectively.

- change in form on VT-PXRD analysis [1]: no change in form
- hygroscopicity [2]: non-hygroscopic
SMILES: C[C@@H]1CCC[C@H](n2cnc(-c3cc(Cl)ccc3-n3cc(Cl)nn3)cc2=O)c2cc(ccn2)-c2c(cnn2C(F)F)NC1=O [Form C, (9R,13S)-13-{4-[5-chloro-2-(4-chloro-1H-1,2,3-triazol-1-yl)phenyl]-6-oxo-1,6-dihydropyrimidin-1-yl}-3-(difluoromethyl)-9-methyl-3,4,7,15-tetraazatricyclo[12.3.1.0^2,6]octadeca-1(18),2(6),4,14,16-pentaen-8-one]

- change of crystalline form after being subjected to DVS conditions ([3]; PXRD and IR post-DVS analysis): did not change
- hygroscopicity indicated by DVS analysis ([3]; weight change vs relative humidity at 25° C.): not hygroscopic
SMILES: C[C@@H]1CCC[C@H](n2cnc(-c3cc(Cl)ccc3-n3cc(Cl)nn3)cc2=O)c2cc(ccn2)-c2c(cnn2C(F)F)NC1=O [Form A, (9R,13S)-13-{4-[5-chloro-2-(4-chloro-1H-1,2,3-triazol-1-yl)phenyl]-6-oxo-1,6-dihydropyrimidin-1-yl}-3-(difluoromethyl)-9-methyl-3,4,7,15-tetraazatricyclo[12.3.1.0^2,6]octadeca-1(18),2(6),4,14,16-pentaen-8-one]

- loss of weight in TGA ([4]; below about 250° C.): no significant loss of weight
- onset of decomposition in TGA [4]: about 281 °C
SMILES: C[C@@H]1CCC[C@H](n2cnc(-c3cc(Cl)ccc3-n3cc(Cl)nn3)cc2=O)c2cc(ccn2)-c2c(cnn2C(F)F)NC1=O [Form J, (9R,13S)-13-{4-[5-chloro-2-(4-chloro-1H-1,2,3-triazol-1-yl)phenyl]-6-oxo-1,6-dihydropyrimidin-1-yl}-3-(difluoromethyl)-9-methyl-3,4,7,15-tetraazatricyclo[12.3.1.0^2,6]octadeca-1(18),2(6),4,14,16-pentaen-8-one]
